According to US8232299B2, “Phthalimide derivatives that influence cellular vesicular systems, pharmaceutical compositions, and use thereof” (Avidin Kft., priority 2007, dated 2012):

Columns and labels:
[1] = tested on: MCF7 (Human breast adenocarcinoma); test: cytotoxic effect on breast carcinoma cell line, MTS test, 24 hours; format: cell-based; settings: 24 hours incubation, in the concentration range tested
Method: In these experiments HepG2 (human hepatocellular carcinoma) and MCF7 (Human breast adenocarcinoma) cells were used. They were cultured in the following media: For HepG2 Dulbecco's Modified Eagle Medium (D-MEM) (high glucose) (Gibco BRL, Carlsbad, Calif., USA), penicillin (50 IU/ml)-streptomycin ([…]), 10% fetal bovine serum; for MCF7 (Human breast adenocarcinoma) 1:1 mixture of Dulbecco's Modified Eagle Medium (D-MEM) (high glucose) (Gibco BRL, Carlsbad, Calif., USA) and Nutrient Mixture F-12 Ham (Sigma, St. Louis, Mo., USA), penicillin (50 IU/ml)-streptomycin ([…]), 10% fetal bovine serum. Experiments were performed as described in Example 9. with the difference that the incubation time was 24 hours in this case. After the incubation period MTS test (3-(4,5-dimethylthiazol-2-yl)-5-(3-carboxymethoxyphenyl)-2-(4-sulfophenyl)-2H-tetrazolium) (Promega, Madison, Wis., USA) was performed as described above.

human melanoma (HT168M1) = test: subcutaneous melanoma tumor model; format: in vivo, CB17/scid mice; settings: 40 mg/kg per os, once a day five days per week for 3 weeks from day 7; FIG. 8
Method: Slightly anesthetized (diethyl ether narcosis) adult male CB17/scid mice born with immunodeficiency were subcutaneously (s.c.) implanted with 8×10^5 cells from in vitro human melanoma (HT168M1) cultures. After tumor cell inoculation animals were randomly assigned into three groups and their ears were marked. From the 7th day after the tumor cell inoculation mice were treated once a day five days per week for 3 weeks with compound 2 (40 mg/kg), or with compound 3b (40 mg/kg) per os by gavage. Control animals were treated with appropriate dilution of the carrier (DMSO) in a similar manner with similar frequency. Body weight changes were monitored once a week for each animal. When subcutaneous tumor reached palpable size its dimensions were also detected with caliper. Tumor volume was estimated by the formula π/6×a×b^2, where “a” is the longer and “b” is the shorter diameter. 30 days after implantation animals were sacrificed by bleeding in Nembutal (75 mg/kg) anesthesia. Evaluation was based on the mass of the primary tumor.
In this experiment the effect of compound 2 and compound 3b was tested in oral administration at the same dose (40 mg/kg).

[2] = tested on: RVH human melanoma cell line; test: cytotoxic effect on melanoma cell line, MTS assay, 48 hours; format: cell-based; settings: 48 hours treatment; FIG. 4
Method: RVH human melanoma cell line was cultured in Minimum Essential Medium Eagle (Sigma, St. Louis, Mo., USA), Na-piruvate, Glutamine, Non-essential amino acids, penicillin (50 IU/ml)-streptomycin ([…]), 10% fetal bovine serum at 37° C., in 5% CO2. Cells were trypsinized with trypsin/EDTA (Sigma-Aldrich, St. Louis, Mo.) on every second day and were passed into 60 or 100 mm plates. When the culture reached the required cell number (approx. 10^6) for the planned experiment 50.00 cell/well was plated into 24 well plates (Costar® 24 Well TC-Treated Microplates) and left overnight to adhere to the bottom of the well. Addition of the substance was performed the following way: next day the culture media was drawn from the adhered cells and media comprising compounds of the present invention in appropriate concentration and well mixed therein was pipetted (2 ml/well) onto the cells. The substance to be examined was diluted in 100% DMSO, this way an amount of DMSO corresponding to the highest concentration of the substance in a given assay were measured in the media of the control wells. After 48 hours of treatment live cells were detected by CellTiter® 96 Aqueous Non-radioactive Cell Proliferation Assay (Promega, Madison, Wis., USA) to determine the number of live cells in the treated and in the control samples.
MTS is converted to formazane in the living cells, which product is dissolved in the media, and its quantity/absorbance can be measured at 490 nm. […] Then, for the determination of the ratio of live cells 20 μl MTS and 1 μl PMS are added to 100 μl media. The enzyme reaction occurs at incubation at 37° C., 5% CO2 for 1 to 4 hours. Formazane produced by the cells is read on ELISA plate reader, from which the number of living cells can be obtained indirectly. Since the inventors performed the experiments in 24 well plates with 50.000 cell/well, the protocol had to be modified. After treatment of the cells for an appropriate time (type of compound, different concentrations), the incubation media (2 ml) containing the examined substance was removed, then 400 μl media containing reagents in the same concentration as given above (333.3 μl media, 66.6 μl MTS, and 3.3 μl PMS per well) was pipetted to the cells. To be able to use ELISA plate reader (Multiskan R C, Thermo Labsystems, Franklin, Mass., USA) 400 μl sample from each single well of the 24 well plate was pipetted into four wells of a 96 well plate (Micromethod plates 96 wells flat form) in 100 μl aliquots. That also helped to eliminate possible errors due to inconsistent pipetting. On each 24 well plate 4 wells were control samples. From these 3 times 100 μl was pipetted onto the 96 well plates, so, altogether 12 controls were provided on each 96 well plate. The remaining 4 wells were for background measurements with 100 μl media containing MTS and PMS as described above.

## CCNc1c(F)c(F)c2c(c1F)C(=O)N(c1c(C(C)C)cccc1C(C)C)C2=O [Compound 3b, 2-(2,6-diisopropylphenyl)-5-(ethylamino)-4,6,7-trifluoroisoindole-1,3-dione]
[1]
  effect on MCF7 cells: weak effect
Human melanoma (HT168M1)
  effect on growth of the subcutaneous primary tumor (tumor mass): significantly (p=0.05) reduced tumor size
[2]
  inhibition of RVH melanoma cells (cytotoxic effect): strongest inhibition
